In patent US8828985B2, “Carbamate and urea inhibitors of 11-beta-hydroxysteroid dehydrogenase 1” (Vitae Pharmaceuticals, Inc., priority 2008, dated 2014):
Read-outs that look alike come from different tables or passages of the source.

Target: human 11β-HSD1 (Homo sapiens, UniProt P28845)
Test: biochemical
Settings: for inhibition at 0.1 µM / inhibition at 0.111 µM: 1.5 h; for inhibition at 0.1 µM: read-out: Biological Test Example 2 Average % inhibition at 100 nm, at 100 nm; for IC50: Biological Test Example 2 IC50 Range, microsomes from CHO cells overexpressing human 11β-HSD1, SPA
[1] = read-out: Biological Test Example 2 Average % inhibition at 111 nm, at 111 nm

Sequence of human 11β-HSD1 (P28845 whole entry): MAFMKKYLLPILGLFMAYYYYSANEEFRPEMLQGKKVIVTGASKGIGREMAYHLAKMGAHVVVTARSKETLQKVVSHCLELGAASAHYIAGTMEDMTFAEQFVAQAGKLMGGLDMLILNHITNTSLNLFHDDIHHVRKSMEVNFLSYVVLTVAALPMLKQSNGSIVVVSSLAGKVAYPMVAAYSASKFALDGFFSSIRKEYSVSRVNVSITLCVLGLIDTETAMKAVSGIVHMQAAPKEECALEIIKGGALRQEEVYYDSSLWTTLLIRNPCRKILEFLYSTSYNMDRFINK
Description: All reactions are carried out at room temperature in 96 well clear flexible PET Microbeta plates (PerkinElmer). […] The reaction is stopped by adding 50 μl of the SPA beads suspension containing 10 μM 18β-glycyrrhetinic acid, 5 mg/ml protein A coated YSi SPA beads (GE Healthcare) and 3.3 μg/ml of anti-cortisol antibody (East Coast Biologics) in Superblock buffer (Bio-Rad). The plates are then shaken for 120 minutes at room temperature, and the SPA signal corresponding to [^3H]cortisol is measured on a Microbeta plate reader.

Row | Structure (SMILES) | inhibition at 0.1 µM | IC50 | inhibition at 0.111 µM [1] | inhibition at 0.111 µM (read-out: Biological Test Example 2 Average % inhibition at 111 nm)
1 | N#Cc1ccc2nc(N[C@@H]3CCN(C(=O)O[C@H]4C5CC6CC4C[C@](O)(C6)C5)C3)cnc2c1 [Example 91, (R)-(trans-1-hydroxy-4-adamantyl) 3-(6-cyanoquinoxalin-2-ylamino)pyrrolidine-1-carboxylate] | 63.6% | < 100 nM |  | 
2 | CC(C)OC(=O)N[C@@H]1CCN(C(=O)NC2C3CC4CC(C3)CC2C4)C1 (stereo partly drawn) [Example 49, (R)-isopropyl 1-((2-adamantyl)carbamoyl)pyrrolidin-3-ylcarbamate] |  | < 100 nM | 74.6% | 
3 | O=C(NC1CC1)c1cnc(N[C@@H]2CCN(C(=O)O[C@H]3C4CC5CC3C[C@](O)(C5)C4)C2)nc1 [Example 112, (R)-(trans-1-hydroxy-4-adamantyl) 3-(5-(cyclopropylcarbamoyl)pyrimidin-2-ylamino)pyrrolidine-1-carboxylate] | 33.3% | > 100 nM |  | 
4 | NC(=O)c1cnc(N[C@@H]2CCN(C(=O)O[C@H]3C4CC5CC3C[C@](O)(C5)C4)C2)c(Cl)c1 [Example 92, (R)-(trans-1-hydroxy-4-adamantyl) 3-(5-carbamoyl-3-chloropyridin-2-ylamino)pyrrolidine-1-carboxylate] | 60.2% | < 100 nM |  | 
5 | CC(C)(C)OC(=O)N(CCO)[C@@H]1CCN(C(=O)O[C@H]2C3CC4CC2C[C@](C(N)=O)(C4)C3)C1 [Example 28, (R)-(1-carbamoyl-4-adamantyl) 3-(tert-butoxycarbonyl(2-hydroxyethyl)amino)pyrrolidine-1-carboxylate] |  | < 100 nM |  | 
6 | N#Cc1ccc(N[C@@H]2CCN(C(=O)O[C@H]3C[C@H]4CC[C@@H](C3)N4C(N)=O)C2)nc1 [Example 105, (3R)-8-carbamoyl-8-azabicyclo[3.2.1]octan-3-yl 3-(5-cyanopyridin-2-ylamino)pyrrolidine-1-carboxylate] | 14.8% | > 100 nM |  | 
7 | CC(C)(C)OC(=O)N1CCCC12CCN(C(=O)NC1C3CC4CC(C3)CC1C4)C2 (stereo not shown) [Example 58, tert-butyl 7-(2-adamantylcarbamoyl)-1,7-diazaspiro[4.4]nonane-1-carboxylate] |  | < 100 nM | 94.3% | 
8 | NC(=O)[C@]12CC3CC(C1)[C@@H](OC(=O)N1CC[C@@H](Nc4nnc(C(F)(F)F)s4)C1)C(C3)C2 [Example 42, (R)-(trans-1-carbamoyl-4-adamantyl) 3-(5-(trifluoromethyl)-1,3,4-thiadiazol-2-ylamino)pyrrolidine-1-carboxylate] | 79.3% | < 100 nM |  | 
9 | N#Cc1cnc(N[C@@H]2CCN(C(=O)O[C@H]3C4CC5CC3C[C@](O)(C5)C4)C2)c(Cl)c1 [Example 87, (R)-(trans-1-hydroxy-4-adamantyl) 3-(3-chloro-5-cyanopyridin-2-ylamino)pyrrolidine-1-carboxylate] | 100% | < 100 nM |  | 
10 | N#Cc1ccc(N2CCCC23CCN(C(=O)O[C@H]2C4CC5CC2C[C@](C(N)=O)(C5)C4)C3)nc1 (stereo partly drawn) [Example 75, (trans-1-carbamoyl-4-adamantyl) 1-(5-cyanopyridin-2-yl)-1,7-diazaspiro[4.4]nonane-7-carboxylate] | 98.8% | < 100 nM | 97.7% | 
11 | N#Cc1cccnc1N[C@@H]1CCN(C(=O)O[C@H]2C3CC4CC2C[C@](O)(C4)C3)C1 [Example 80, (R)-(trans-1-hydroxy-4-adamantyl) 3-(3-cyanopyridin-2-ylamino)pyrrolidine-1-carboxylate] |  | < 100 nM |  | 
12 | N#Cc1ccc2nc(N[C@@H]3CCN(C(=O)O[C@H]4C5CC6CC4C[C@](O)(C6)C5)C3)ccc2c1 [Example 90, (R)-(trans-1-hydroxy-4-adamantyl) 3-(6-cyanoquinolin-2-ylamino)pyrrolidine-1-carboxylate] | 95.6% | < 100 nM |  | 
13 | CCOC(=O)C1(Nc2ccccc2)CCN(C(=O)NC2C3CC4CC(C3)CC2C4)CC1 (stereo not shown) [Example 59, Ethyl 1-(2-adamantylcarbamoyl)-4-(phenylamino)piperidine-4-carboxylate] |  | 100 to 1000 nM |  | 47.5%

Second part, led by results:

Row | inhibition at 0.1 µM | IC50 | inhibition at 0.111 µM [1] | Structure (SMILES) | inhibition at 0.111 µM (read-out: Biological Test Example 2 Average % inhibition at 111 nm)
14 | 97.7% | < 100 nM |  | CN(c1cccc(C(F)(F)F)n1)C1CCN(C(=O)OC2C3CC4CC2CC(C(N)=O)(C4)C3)C1 (stereo not drawn) [Example 45, (trans-1-carbamoyl-4-adamantyl) 3-(methyl(6-(trifluoromethyl)pyridin-2-yl)amino)pyrrolidine-1-carboxylate] | 
15 | 90.6% | < 100 nM |  | O=C(O[C@H]1C2CC3CC1C[C@](O)(C3)C2)N1CC[C@@H](Nc2ccc3cc(Cl)ccc3n2)C1 [Example 95, (R)-(trans-1-hydroxy-4-adamantyl) 3-(6-chloroquinolin-2-ylamino)pyrrolidine-1-carboxylate] | 
16 |  | < 100 nM |  | CC(C)(C)OC(=O)N1C[C@@H]2C[C@H]1CN2C(=O)OC1C2CC3CC(C2)CC1C3 (stereo partly drawn) [Example 7, (1S,4S)-2-tert-butyl 5-(2-adamantyl)-2,5-diazabicyclo[2.2.1]heptane-2,5-dicarboxylate] | 
17 | 97.8% | < 100 nM | 96.5% | CN(c1ccc(C#N)cn1)C1CCN(C(=O)O[C@H]2C3CC4CC2C[C@](C(N)=O)(C4)C3)C1 (stereo partly drawn) [Example 74, (trans-1-carbamoyl-4-adamantyl) 3-((5-cyanopyridin-2-yl)(methyl)amino)pyrrolidine-1-carboxylate] | 
18 | 97.1% | < 100 nM |  | N#Cc1ccc(N[C@H]2CCN(C(=O)O[C@H]3C4CC5CC3C[C@](C(N)=O)(C5)C4)C2)nc1 [Example 65, (S)-(trans-1-carbamoyl-4-adamantyl) 3-(5-cyanopyridin-2-ylamino)pyrrolidine-1-carboxylate] | 
19 | 78.4% | < 100 nM |  | COC(=O)C12CC3CC(C1)C(OC(=O)N1CC[C@@H](Nc4ncccc4C#N)C1)C(C3)C2 (stereo partly drawn) [Example 70, (R)-(1-(methoxycarbonyl)-4-adamantyl) 3-(3-cyanopyridin-2-ylamino)pyrrolidine-1-carboxylate] | 
20 | 46.8% | < 100 nM |  | CN(C(=O)c1cccnc1N[C@@H]1CCN(C(=O)O[C@H]2C3CC4CC2C[C@](O)(C4)C3)C1)C(C)(C)C [Example 100, (trans-1-hydroxy-4-adamantyl) 3-(3-(tert-butyl(methyl)carbamoyl)pyridin-2-ylamino)pyrrolidine-1-carboxylate] | 
21 | 69.4% | < 100 nM |  | Cc1nccc2nc(N[C@@H]3CCN(C(=O)O[C@H]4C5CC6CC4C[C@](O)(C6)C5)C3)ccc12 [Example 88, (R)-(trans-1-hydroxy-4-adamantyl) 3-(5-methyl-1,6-naphthyridin-2-ylamino)pyrrolidine-1-carboxylate] | 
22 | 84.2% | < 100 nM | 82.6% | NC(=O)C1CC2CCCC(C1)C2OC(=O)N1CC[C@@H](Nc2ccc(C(F)(F)F)cn2)C1 (stereo partly drawn) [Example 71, (3R)-3-carbamoylbicyclo[3.3.1]nonan-9-yl 3-(5-(trifluoromethyl)pyridin-2-ylamino)pyrrolidine-1-carboxylate] | 
23 | 71.4% | < 100 nM |  | N#Cc1ccc(N[C@@H]2CCN(C(=O)O[C@H]3C4CC5CC3C[C@](C(N)=O)(C5)C4)C2)nn1 [Example 116, (R)-(trans-1-carbamoyl-4-adamantyl) 3-(6-cyanopyridazin-3-ylamino)pyrrolidine-1-carboxylate] | 
24 |  | < 100 nM | 92.9% | CC(C)COC(=O)N[C@@H]1CCN(C(=O)NC2C3CC4CC(C3)CC2C4)C1 (stereo partly drawn) [Example 50, (R)-isobutyl 1-((2-adamantyl)carbamoyl)pyrrolidin-3-ylcarbamate] | 
25 | 78.6% | < 100 nM |  | Cc1cc(N[C@@H]2CCN(C(=O)O[C@H]3C4CC5CC3C[C@](C(N)=O)(C5)C4)C2)nc(C)n1 [Example 33, (R)-(trans-1-carbamoyl-4-adamantyl) 3-(2,6-dimethylpyrimidin-4-ylamino)pyrrolidine-1-carboxylate] | 
26 | 86.6% | < 100 nM |  | N#Cc1cnc(N[C@@H]2CCN(C(=O)O[C@H]3C4CC5CC3C[C@](O)(C5)C4)C2)s1 [Example 82, (R)-(trans-1-hydroxy-4-adamantyl) 3-(5-cyanothiazol-2-ylamino)pyrrolidine-1-carboxylate] | 
27 | 50.1% | < 100 nM |  | NC(=O)c1cnc(N[C@@H]2CCN(C(=O)O[C@H]3C4CC5CC3C[C@](O)(C5)C4)C2)nc1 [Example 109, (R)-(trans-1-hydroxy-4-adamantyl) 3-(5-carbamoylpyrimidin-2-ylamino)pyrrolidine-1-carboxylate] | 
28 | 98.5% | < 100 nM |  | Cc1ccc(C#N)c(N[C@@H]2CCN(C(=O)O[C@H]3C4CC5CC3C[C@](O)(C5)C4)C2)n1 [Example 83, (R)-(trans-1-hydroxy-4-adamantyl) 3-(3-cyano-6-methylpyridin-2-ylamino)pyrrolidine-1-carboxylate] | 
29 | 9.1% | > 100 nM |  | N#Cc1ccc(N[C@@H]2CCN(C(=O)OC3C4CC5CC3CC(C(=O)NC3CC3)(C5)C4)C2)nc1 (single isomer, unassigned) [Example 118 Isomer 1] | 
30 | 94.6% | < 100 nM |  | N#Cc1cccnc1N[C@@H]1CCN(C(=O)O[C@H]2C3CC4CC2C[C@](C#N)(C4)C3)C1 [Example 73, (3R) (trans-1-cyano-4-adamantyl) 3-(3-cyanopyridin-2-ylamino)pyrrolidine-1-carboxylate] | 
31 | 64% | < 100 nM |  | O=C(O[C@H]1C2CC3CC1C[C@](O)(C3)C2)N1CC[C@@H](Nc2ncnc3ccccc23)C1 [Example 85, (R)-(trans-1-hydroxy-4-adamantyl) 3-(quinazolin-4-ylamino)pyrrolidine-1-carboxylate] | 
32 | 101% | < 100 nM |  | O=C(O[C@H]1C2CC3CC1C[C@](O)(C3)C2)N1CC[C@@H](Nc2cnc3cc(Cl)ccc3n2)C1 [Example 96, (R)-(trans-1-hydroxy-4-adamantyl) 3-(6-chloroquinoxalin-2-ylamino)pyrrolidine-1-carboxylate] | 
